Source: PMC6416395, “B1.12: a novel peptide interacting with the extracellular loop of the EBV oncoprotein LMP1” (Scientific Reports, 2019)
Entries after “also recorded” stand apart in the source; their conditions may differ. Residues, ends and D or L forms follow the SMILES beside them.

What was measured:
[1] = test system: B1 peptide (first extracellular loop of LMP1); test: NMR titration of B1/B1.12 interaction; type: binding, Epstein-Barr virus (EBV); settings: H2O/D2O (90:10), 500 MHz
Experimental: The NMR experiments samples were prepared in 500 μL of H2O/D2O (90:10); using 1 mM of B1 peptide and 21 mM of B1.12 peptide. Titration experiment was also performed with varying the B1:B1.12 proportions (1:1; 3:1; 5:1; 7:1; 9:1). The NMR experiments were recorded on a Bruker spectrometer 500 MHz equipped with a TCI cryoprobe. Acquisition was performed with water suppression with excitation sculpting pulse sequence.

B1 peptide = test: Competitive inhibition of phage B1.12 binding to B1 peptide; design: species or system Epstein-Barr virus (EBV); settings: B1.12 phage 2 × 10^10 pfu, room temperature 1 hour
Experimental: Binding of the B1.12 peptide to its target B1 and to HeLa/LMP1 cells was evaluated by a competitive binding assay. […] Then the B1.12 phage (2 × 10^10 pfu) was added to each well and incubated for 1 hour. After washing, the bound phage was detected by the anti-M13 antibody as described previously. For the competition test on HeLa cells expressing or not the viral oncoprotein LMP1, cells were seeded into 96-well plates (10^4 cells/well), washed twice in PBS, and fixed with 4% paraformaldehyde for 30 minutes at room temperature. Synthetic peptides at concentrations of 50, 75, 100 and 200 µM were incubated with the cells at 37 °C for 1 hour and the experiment was carried out as described above. All experiments were done in triplicate and the mean values of OD were used to calculate the rate of competitive inhibition according to the following formula: inhibition ratio = (OD control − OD phage)/OD control × 100, where OD control and OD phage represent the OD450 nm values of phage binding on cells incubated with PBS and with the peptide, respectively.

C666.1 cells = test: Cell cycle analysis, C666.1; type: cell-based; settings: C666.1, 50 µM peptide
Experimental: (§1) Cell cycle analysis of C666.1 and HT29 cells was performed using the FXcycleTm PIi/RNnase staining solution (Invitrogen). Briefly, cells (4 × 10^5) were seeded and grown for 24 hours, and then incubated with serum-free RPMI for another 24 hours (starvation) to decrease cell constitutive signaling. After starvation, cells were incubated or not with 50 µM B1.12 peptide (C666.1 and HT29 cells) or control peptide (C666.1 cells) for 48 hours. Following incubation, cells were washed with PBS, trypsinized and centrifuged at 1200 rpm for 5 minutes. The cell pellet was then washed twice with PBS, and cells were fixed with 5 mL of ethanol 70% for 24 hours at 4 °C. Aliquots of 2 × 10^5 ethanol-fixed cells were then centrifuged for 5 minutes at 450 g, washed with PBS, and then resuspended in Propidium Iodide Reagent and incubated for 30 minutes at room temperature, shielded from light. The data were collected and analyzed by an Attune NxT Flow Cytometer (Thermofisher).

HT29 cells = test: Cell cycle analysis, HT29; type: cell-based, human; settings: HT29, 50 µM peptide
Experimental: Three cell lines were used: C666-1 which is a native EBV-infected NPC-derived cell line constitutively expressing LMP1, HeLa cells transfected with native vector (Gpt) or harboring the cDNA encoding LMP1, and HT-29 which is a human colon cancer cell line All cells were maintained in RPMI medium 1640 supplemented with 5% (V/V) FBS (Gibco), 4 µg/mL Gentamycine and 2 mM L-glutamine at 37 °C in a humidified atmosphere of 5% CO2. These cell lines were kindly provided by Pr P. Busson (IGR-France).
as §1, with “Aliquots of 2 × 10^5 ethanol-fixed cells were then centrifuged for 5 minutes at 450 g, washed with PBS, and then resuspended in Propidium Iodide Reagent and incubated for 30 minutes at room temperature, shielded from light.” left out

[2] = propidium iodide FACS, 24 h (48 h elsewhere in the source)

SMILES: CC(C)C[C@H](NC(=O)[C@H](CC(=O)O)NC(=O)[C@H](CC(C)C)NC(=O)[C@@H]1CCCN1C(=O)[C@H](CS)NC(=O)[C@H](C)N)C(=O)N[C@@H](CCCNC(=N)N)C(=O)N[C@@H](CO)C(=O)N1CCC[C@H]1C(=O)N[C@@H](CS)C(=O)NCC(N)=O [B1.12] (H-ACPLDLRSPCG-NH2; N-terminus and C-terminus assumed)
- binding to target B1 (NMR) ([1]; 1 mM B1, 21 mM B1.12): bound specifically to its target B1
- B1 residues showing chemical shift variation ([1]; B1:B1.12 titration 1:1 to 9:1): Met2, Trp5 and Thr6; also recorded: Met^2, Trp^5 and Thr^6
- effect on binding of phage B1.12 to target B1 (B1 peptide; increasing peptide concentration, triplicate): the inhibition ratio increased gradually
- inhibition ratio (B1 peptide; peptide 400 µM, triplicate mean): approximately 43%
- cell cycle progression versus untreated (in words) (C666.1 cells): inducing G0/G1 cell cycle arrest
- cells in G0/G1 phase (C666.1 cells; [2]): 73%
- cell cycle phases versus untreated (in words) (HT29 cells): the cell cycle phases still unchanged
- cells in G0/G1 phase (HT29 cells; [2]): 78.3%
